Data as given in patent publication US9321756B2, “Azole compounds as PIM inhibitors” (priority 2011, dated 2016).
Read-outs that look alike come from different tables or passages of the source.

Legend:
[1] = biological target: full length recombinant Pim-3 (Homo sapiens (Human), UniProt Q86V86); experiment: Pim enzyme assay (HTRF, phosphorylation of biotinylated-BAD (S112) peptide), Pim-3; format: biochemical; details: read-out: Pim3 IC50
Summary of the method: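 IC50 values were fitted with a 4-parameter logistic model to percent-of-control HTRF signal (Eu anti-phospho-BAD S112 antibody/streptavidin-APC). Reactions used full-length Pim-3 and biotin-BAD (S112) peptide, ran 1 h 30 min at RT (22 °C) in Hepes pH 7.0 buffer with BSA and DTT, and were stopped by 3 mM EDTA.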

[2] = biological target: full length recombinant Pim-1 (Homo sapiens (Human), UniProt P11309); experiment: Pim enzyme assay (HTRF, phosphorylation of biotinylated-BAD (S112) peptide), Pim-1; format: biochemical; details: read-out: Pim_1_IC50
[3] = test system: Pim-1 stably transfected U2OS human osteogenic sarcoma line; experiment: Pim cell assay U2OS (phospho-BAD normalized against total BAD), Pim-1 transfected; format: cell-based
Description: The cell lines used in the assay were generated by the stable transfection of either Pim-1 or Pim-2 into the U2OS human osteogenic sarcoma line. The assay for determination of the Pim activity in the engineered U2OS cell lines measures levels of phospho-BAD normalized against total BAD protein levels. It was conducted as follows:
The adherent cells were dissociated from the flasks using non-enzymatic cell dissociation solution (Sigma #C5914). […] The cells were then incubated overnight at 37° C., 5% CO2.
In addition to the 10-point dosing curve of the test compound, DMSO alone was run as the high control.
This dilution in DMSO was then diluted again into cell growth medium. Aliquots (12 μL) of the compound diluted in growth medium were then transferred to the appropriate wells of the 96-well plates containing cells to a final DMSO concentration of 0.3%. The cell plates were then incubated with compound for 29 min at 37° C., 5% CO2.
The cell plates containing lysis buffer were then immediately stored at −70° C.
These prepared lysates were then assayed for phospho and total BAD according to the manufacturer's protocols (Meso Scale Diagnostics, Cat#K15103C-3 & #K15103D-3). The plates were read on the MSD Sector Imager 6000, and results were calculated according to the assay protocols ((% Phosphoprotein=((2×Phospho signal)/(Phospho signal+Total signal))×100)).

[4] = biological target: full length recombinant Pim-2 (Homo sapiens (Human), UniProt Q9P1W9); experiment: Pim enzyme assay (HTRF, phosphorylation of biotinylated-BAD (S112) peptide), Pim-2; format: biochemical; details: read-out: Pim2_IC50
[5] = Homo sapiens, U2OS, read-out: U2OS Pim1_Cell_IC50, U2OS cells, Pim-1 transfected
[6] = Homo sapiens, U2OS, read-out: U2OS Pim1_Cell_IC50
[7] = read-out: U2OS Pim1_Cell_IC50, U2OS cells, Pim-1 transfected

full length recombinant Pim-2, sequence (Q9P1W9 whole entry): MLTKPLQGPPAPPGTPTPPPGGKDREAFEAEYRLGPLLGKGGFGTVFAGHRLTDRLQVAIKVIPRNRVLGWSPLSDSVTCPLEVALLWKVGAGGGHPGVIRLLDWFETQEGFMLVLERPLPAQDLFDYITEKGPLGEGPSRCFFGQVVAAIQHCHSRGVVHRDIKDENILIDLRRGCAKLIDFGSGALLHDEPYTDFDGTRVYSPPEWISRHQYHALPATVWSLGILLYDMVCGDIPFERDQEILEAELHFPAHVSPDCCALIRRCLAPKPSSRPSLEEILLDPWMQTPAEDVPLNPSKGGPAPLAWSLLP
full length recombinant Pim-1, sequence (P11309 whole entry): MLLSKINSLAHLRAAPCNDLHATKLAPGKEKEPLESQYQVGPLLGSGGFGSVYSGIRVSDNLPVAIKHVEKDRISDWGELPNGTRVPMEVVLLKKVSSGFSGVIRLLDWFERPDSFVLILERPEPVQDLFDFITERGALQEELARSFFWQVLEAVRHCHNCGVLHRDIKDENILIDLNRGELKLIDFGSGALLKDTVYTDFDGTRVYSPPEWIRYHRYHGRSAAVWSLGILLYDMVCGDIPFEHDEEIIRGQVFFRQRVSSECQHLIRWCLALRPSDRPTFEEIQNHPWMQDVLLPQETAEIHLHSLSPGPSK

Row | Compound | IC50 ([1]; Pim-3 enzyme assay) [nM] | IC50 ([2]; Pim-1 enzyme assay) [nM] | IC50 ([4]; Pim-2 enzyme assay) [nM] | also measured
1 | Fc1ccccc1-c1c[nH]c2ccc(-c3nnc(NCC[C@H]4CCCCN4)s3)cc12 (stereo in doubt) [Example 141, 5-(3-(2-fluorophenyl)-1H-indol-5-yl)-N-(2-(2-piperidinyl)ethyl)-1,3,4-thiadiazol-2-amine] | 49.6 | 74 | 480 | IC50 [3, 6]: 1110 nM
2 | C[C@@H]1CCCN(c2cccc(-c3c[nH]c4ccc(-c5nnc(N)s5)cc34)n2)C1 (stereo in doubt) [Example 174, 5-(3-(6-(3-methyl-1-piperidinyl)-2-pyridinyl)-1H-indol-5-yl)-1,3,4-thiadiazol-2-amine] | 23.6 | 41 | 159 | IC50 [3, 6]: 998 nM
3 | Nc1nnc(-c2ccc3[nH]cc(-c4cccc(N5CCCC5)n4)c3c2)s1 [Example 14, 5-(3-(6-(pyrrolidin-1-yl)pyridin-2-yl)-1H-indol-5-yl)-1,3,4-thiadiazol-2-amine] | – | – | 42 | IC50 [2]: 11.1 nM; IC50 [3, 7]: 159 nM
4 | Nc1nnc(-c2ccc3[nH]cc(-c4cncc(NC5CC5)n4)c3c2)s1 [Example 15, 5-(3-(6-(cyclopropylamino)pyrazin-2-yl)-1H-indol-5-yl)-1,3,4-thiadiazol-2-amine] | – | – | 20.1 | IC50 [2]: 4.57 nM; IC50 [3, 5]: 108 nM
5 | CN1CCN(c2cccc(-c3c[nH]c4ccc(-c5nnc(N)s5)cc34)n2)CC1=O [Example 30, 4-(6-(5-(5-amino-1,3,4-thiadiazol-2-yl)-1H-indol-3-yl)pyridin-2-yl)-1-methylpiperazin-2-one] | 2.5 | – | 52.7 | IC50 [2]: 13.3 nM; IC50 [3, 5]: 1170 nM
6 | c1cc2[nH]cc(-c3cncc(C4CC4)n3)c2cc1-c1nnc(N2CCCC2)o1 [Example 37, 2-(3-(6-Cyclopropylpyrazin-2-yl)-1H-indol-5-yl)-5-(pyrrolidin-1-yl)-1,3,4-oxadiazole 2,2,2-trifluoroacetate] | – | 9.14 | – | IC50 [1]: 6.78 nM; IC50 [3, 5]: 237 nM; IC50 [4]: 80.1 nM
7 | Fc1ccccc1-c1c[nH]c2ccc(-c3nnc(NCc4cccc5[nH]ccc45)s3)cc12 [Example 143, 5-(3-(2-fluorophenyl)-1H-indol-5-yl)-N-(1H-indol-4-ylmethyl)-1,3,4-thiadiazol-2-amine] | 84.5 | 145 | 3020 | IC50 [3, 6]: 5200 nM
8 | Nc1nnc(-c2ccc3[nH]cc(-c4cccc(N5CCCC5)n4)c3c2)s1 [Example 176, 5-(3-(6-(1-pyrrolidinyl)-2-pyridinyl)-1H-indol-5-yl)-1,3,4-thiadiazol-2-amine] | – | – | 104 | IC50 [2]: 43.5 nM; IC50 [3, 7]: 526 nM
9 | CNc1nnc(-c2ccc3[nH]cc(-c4cccc(OC)c4)c3c2)s1 [Example 226, 5-(3-(3-methoxyphenyl)-1H-indol-5-yl)-N-methyl-1,3,4-thiadiazol-2-amine] | 354 | 2450 | > 3000 | –
10 | CNc1nnc(-c2ccc3[nH]cc(-c4cccc(-n5ccnc5C)n4)c3c2)s1 [Example 234, N-methyl-5-(3-(6-(2-methyl-1H-imidazol-1-yl)-2-pyridinyl)-1H-indol-5-yl)-1,3,4-thiadiazol-2-amine] | 18.5 | 108 | 123 | –
11 | CNc1nnc(-c2ccc3[nH]cc(-c4cccc(-n5ccccc5=O)n4)c3c2)s1 [Example 238, 6′-(5-(5-(methylamino)-1,3,4-thiadiazol-2-yl)-1H-indol-3-yl)-2H-1,2′-bipyridin-2-one] | 197 | 712 | 856 | –
12 | c1ccc(-c2nnc(-c3ccc4[nH]cc(-c5nccc(C6CC6)n5)c4c3)o2)cc1 [Example 255, 3-(4-cyclopropyl-2-pyrimidinyl)-5-(5-phenyl-1,3,4-oxadiazol-2-yl)-1H-indole] | 123 | 323 | 677 | –

Continued by falling IC50 ([2]; Pim-1 enzyme assay), values first:

Row | IC50 ([1]; Pim-3 enzyme assay) [nM] | IC50 ([2]; Pim-1 enzyme assay) [nM] | IC50 ([4]; Pim-2 enzyme assay) [nM] | Compound | also measured
13 | 416 | 2360 | > 3000 | CNc1nnc(-c2ccc3[nH]cc(-c4cccc(OC(F)(F)F)c4)c3c2)s1 [Example 225, N-methyl-5-(3-(3-(trifluoromethoxy)phenyl)-1H-indol-5-yl)-1,3,4-thiadiazol-2-amine] | –
14 | 414 | 2180 | > 10000 | CNc1nnc(-c2ccc3[nH]cc(-c4ccc(-c5cccs5)s4)c3c2)s1 [Example 241, 5-(3-(2,2′-bithiophen-5-yl)-1H-indol-5-yl)-N-methyl-1,3,4-thiadiazol-2-amine] | –
15 | 409 | 1520 | 2640 | CNc1nnc(-c2ccc3[nH]cc(-c4csc(-c5ccoc5)n4)c3c2)s1 [Example 240, 5-(3-(2-(3-furanyl)-1,3-thiazol-4-yl)-1H-indol-5-yl)-N-methyl-1,3,4-thiadiazol-2-amine] | –
16 | 170 | 1030 | 739 | CNc1nnc(-c2ccc3[nH]cc(-c4cccc(F)n4)c3c2)s1 [Example 239, 5-(3-(6-fluoro-2-pyridinyl)-1H-indol-5-yl)-N-methyl-1,3,4-thiadiazol-2-amine] | –
17 | 351 | 983 | > 3000 | NC(=O)c1nnc(-c2ccc3[nH]cc(-c4cccc(N5CCOCC5)n4)c3c2)s1 [Example 242, 5-(3-(6-(4-morpholinyl)-2-pyridinyl)-1H-indol-5-yl)-1,3,4-thiadiazole-2-carboxamide] | –
18 | 227 | 538 | 1220 | CNc1nnc(-c2ccc3[nH]cc(-c4c(F)cccc4F)c3c2)s1 [Example 237, 5-(3-(2,6-difluorophenyl)-1H-indol-5-yl)-N-methyl-1,3,4-thiadiazol-2-amine] | –
19 | 114 | 325 | 538 | CNc1nnc(-c2ccc3[nH]cc(-c4cccc(N5CCCCC5=O)n4)c3c2)s1 [Example 236, 1-(6-(5-(5-(methylamino)-1,3,4-thiadiazol-2-yl)-1H-indol-3-yl)-2-pyridinyl)-2-piperidinone] | –
20 | 81.2 | 171 | 559 | CC(Nc1nnc(-c2ccc3[nH]cc(-c4cnccn4)c3c2)o1)c1ccccc1 (stereo not drawn) [Example 268, N-(1-phenylethyl)-5-(3-(2-pyrazinyl)-1H-indol-5-yl)-1,3,4-oxadiazol-2-amine] | –
21 | 56.1 | 97.2 | 231 | CC(Nc1nnc(-c2ccc3[nH]cc(-c4ccccn4)c3c2)o1)c1ccccc1 (stereo not drawn) [Example 267, N-(1-phenylethyl)-5-(3-(2-pyridinyl)-1H-indol-5-yl)-1,3,4-oxadiazol-2-amine] | –
22 | 13.4 | 73.2 | 244 | N[C@H]1CCN(c2nnc(-c3ccc4[nH]cc(-c5ccccc5F)c4c3)s2)C1 (stereo in doubt) [Example 140, 1-(5-(3-(2-fluorophenyl)-1H-indol-5-yl)-1,3,4-thiadiazol-2-yl)-3-pyrrolidinamine] | IC50 [3, 6]: 871 nM
23 | 43.6 | 64.8 | 229 | CC(Nc1nnc(-c2ccc3[nH]cc(-c4ncccn4)c3c2)o1)c1ccccc1 (stereo not drawn) [Example 266, N-(1-phenylethyl)-5-(3-(2-pyrimidinyl)-1H-indol-5-yl)-1,3,4-oxadiazol-2-amine] | –
24 | 13.7 | 51.6 | 155 | NCCCNc1nnc(-c2ccc3[nH]cc(-c4ccccc4F)c3c2)s1 [Example 12, N-(5-(3-(2-fluorophenyl)-1H-indol-5-yl)-1,3,4-thiadiazol-2-yl)propane-1,3-diamine] | IC50 [3, 6]: 3170 nM
25 | – | 40.5 | 114 | Nc1nnc(-c2ccc3[nH]cc(-c4cccc(OC5CCCCC5)n4)c3c2)s1 [Example 173, 5-(3-(6-(cyclohexyloxy)-2-pyridinyl)-1H-indol-5-yl)-1,3,4-thiadiazol-2-amine] | IC50 ([3]; Homo sapiens, U2OS cells, Pim-1 transfected, read-out: U2OS Pim1_Cell_IC50): 1020 nM
26 | 18.4 | 29.3 | 106 | Fc1ccccc1-c1c[nH]c2ccc(-c3nnc(N[C@H]4CCCNC4)s3)cc12 (stereo in doubt) [Example 139, N-(5-(3-(2-fluorophenyl)-1H-indol-5-yl)-1,3,4-thiadiazol-2-yl)-3-piperidinamine] | IC50 [3, 5]: 578 nM
27 | 21.8 | 16.5 | 57.3 | Nc1nnc(-c2ccc3[nH]cc(-c4cncc(-c5ccccc5Cl)n4)c3c2)o1 [Example 117, 5-(3-(6-(2-chlorophenyl)-2-pyrazinyl)-1H-indol-5-yl)-1,3,4-oxadiazol-2-amine] | IC50 [3, 5]: 227 nM
